For seven molecules, MIC results are on record in patent publication US10030047B2 (Hoffmann-La Roche Inc., priority 2015, dated 2018).

A word on the MIC: it is the smallest concentration in the dilution series that meets the test's criterion for growth inhibition.

≈ marks a conversion by molar mass, not a printed value.

The subject of the assay is A. baumannii strain ATCC19606. Kind of assay: Minimum inhibitory concentration (MIC) determination, microbroth dilution (CLSI). The format is cell-based. The conditions noted are these: Acinetobacter baumannii; A. baumannii ATCC19606; CAMHB; read after 20 hours; >=80% growth inhibition; read-out: ATCC19606 MIC. The method, boiled down:
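After 20 h at 35±2 °C, MIC taken visually and by OD 600 nm as the lowest concentration giving ≥80% growth inhibition. Bacteria (~5×10^5 CFU/ml) were tested per CLSI microbroth dilution against twofold serial compound dilutions in cation-adjusted Mueller Hinton broth.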
On the technique in general: Broth dilution looks for growth in wells or tubes with falling amounts of substance.
For the molecule `CN1C(=O)[C@H](CCCCN)NC(=O)[C@H](CCCN)NCc2ccncc2Sc2c(Cl)cc(C(F)(F)F)cc2CNC(=O)[C@@H]1Cc1c[nH]c2ccccc12` [Example 123, (11S,14S,17S)-14-(4-Amino-butyl)-11-(3-amino-propyl)-25-chloro-17-(1H-indol-3-ylmethyl)-16-methyl-23-trifluoromethyl-2-thia-5,10,13,16,19-pentaaza-tricyclo[19.4.0.0*3,8*]pentacosa-1(25),3,5,7,21,23-hexaene-12,15,18-trione], the MIC is 1 µg/mL (≈ 1.29 µM). The same measure for `Cc1[nH]c2ccccc2c1C[C@H]1C(=O)NCc2ccccc2Sc2ccccc2CN[C@@H](CCCN)C(=O)N[C@@H](CCCCN)C(=O)N1C` [Example 32, (12S,15S,18S)-15-(4-Amino-butyl)-18-(3-amino-propyl)-13-methyl-12-(2-methyl-1H-indol-3-ylmethyl)-2-thia-10,13,16,19-tetraaza-tricyclo[19.4.0.0*3,8*]pentacosa-1(21),3,5,7,22,24-hexaene-11,14,17-trione]: 2 µg/mL (≈ 2.92 µM); for `CN1C(=O)[C@H](CCCCN)NC(=O)[C@H](CCCN)NCc2cccnc2Sc2c(cc(-c3ccccc3)cc2C(F)(F)F)CNC(=O)[C@@H]1Cc1c[nH]c2ccccc12` [Example 87, (11S,14S,17S)-14-(4-Amino-butyl)-11-(3-amino-propyl)-17-(1H-indol-3-ylmethyl)-16-methyl-23-phenyl-25-trifluoromethyl-2-thia-4,10,13,16,19-pentaaza-tricyclo[19.4.0.0*3,8*]pentacosa-1(25),3,5,7,21,23-hexaene-12,15,18-trione]: 8 µg/mL (≈ 9.82 µM).

In the case of `CN1C(=O)[C@H](CCCCN)NC(=O)[C@H](CCCN)NCc2cccnc2Sc2c(cccc2C(F)(F)F)CNC(=O)[C@@H]1Cc1c[nH]c2ccccc12` [Example 36, (11S,14S,17S)-14-(4-Amino-butyl)-11-(3-amino-propyl)-17-(1H-indol-3-ylmethyl)-16-methyl-25-trifluoromethyl-2-thia-4,10,13,16,19-pentaaza-tricyclo[19.4.0.0*3,8*]pentacosa-1(25),3,5,7,21,23-hexaene-12,15,18-trione], the MIC amounted to 1 µg/mL (≈ 1.35 µM). For `CN1C(=O)[C@H](CCCCN)NC(=O)[C@H](CCCN)NCc2ccccc2Sc2ccccc2CNC(=O)[C@@H]1Cc1c[nH]c2ccccc12` [Example 1, (12S,15S,18S)-15-(4-Amino-butyl)-18-(3-amino-propyl)-12-(1H-indol-3-ylmethyl)-13-methyl-2-thia-10,13,16,19-tetraaza-tricyclo[19.4.0.0*3,8*]pentacosa-1(21),3,5,7,22,24-hexaene-11,14,17-trione], the MIC came out at 4 µg/mL (≈ 5.97 µM). In the case of `CN1CCN(c2cc(-c3cc(Cl)c4c(c3)CNC(=O)[C@H](Cc3c[nH]c5ccccc35)N(C)C(=O)[C@H](CCCCN)NC(=O)[C@H](CCCN)NCc3cccnc3S4)ccn2)CC1` [Example 115, (11S,14S,17S)-14-(4-Amino-butyl)-11-(3-amino-propyl)-25-chloro-17-(1H-indol-3-ylmethyl)-16-methyl-23-[2-(4-methyl-piperazin-1-yl)-pyridin-4-yl]-2-thia-4,10,13,16,19-pentaaza-tricyclo[19.4.0.0*3,8*]pentacosa-1(25),3,5,7,21,23-hexaene-12,15,18-trione] it was 2 µg/mL (≈ 2.27 µM); in that of `CNCCCC[C@@H]1NCc2ccccc2Sc2c(Cl)cccc2CNC(=O)[C@H](Cc2c[nH]c3ccccc23)N(C)C(=O)[C@H](CCCCN)NC1=O` [Example 48, (12S,15S,18S)-15-(4-Amino-butyl)-4-chloro-12-(1H-indol-3-ylmethyl)-13-methyl-18-(4-methylamino-butyl)-2-thia-10,13,16,19-tetraaza-tricyclo[19.4.0.0*3,8*]pentacosa-1(21),3,5,7,22,24-hexaene-11,14,17-trione], 2 µg/mL (≈ 2.73 µM).
